Experimental data reported in ChEMBL document CHEMBL1128859, “Cmi-206: A potent dual platelet activating factor antagonist and 5-lipoxygenase inhibitor” (Bioorg Med Chem Lett, 1995).

Key:
[1] = biological target: Platelet-activating factor receptor (Homo sapiens, UniProt P25105); assay: In vitro affinity for human PAF receptor on platelet membranes using [3H]PAF displacement.
[2] = biological target: T1, Polyunsaturated fatty acid 5-lipoxygenase (Rattus norvegicus, UniProt P12527); assay: In vitro inhibition of 5-lipoxygenase in RBL-2H3 (Rat basophilic leukemia) cells.; type: functional, cell-based
T1 sequence (P12527 whole entry): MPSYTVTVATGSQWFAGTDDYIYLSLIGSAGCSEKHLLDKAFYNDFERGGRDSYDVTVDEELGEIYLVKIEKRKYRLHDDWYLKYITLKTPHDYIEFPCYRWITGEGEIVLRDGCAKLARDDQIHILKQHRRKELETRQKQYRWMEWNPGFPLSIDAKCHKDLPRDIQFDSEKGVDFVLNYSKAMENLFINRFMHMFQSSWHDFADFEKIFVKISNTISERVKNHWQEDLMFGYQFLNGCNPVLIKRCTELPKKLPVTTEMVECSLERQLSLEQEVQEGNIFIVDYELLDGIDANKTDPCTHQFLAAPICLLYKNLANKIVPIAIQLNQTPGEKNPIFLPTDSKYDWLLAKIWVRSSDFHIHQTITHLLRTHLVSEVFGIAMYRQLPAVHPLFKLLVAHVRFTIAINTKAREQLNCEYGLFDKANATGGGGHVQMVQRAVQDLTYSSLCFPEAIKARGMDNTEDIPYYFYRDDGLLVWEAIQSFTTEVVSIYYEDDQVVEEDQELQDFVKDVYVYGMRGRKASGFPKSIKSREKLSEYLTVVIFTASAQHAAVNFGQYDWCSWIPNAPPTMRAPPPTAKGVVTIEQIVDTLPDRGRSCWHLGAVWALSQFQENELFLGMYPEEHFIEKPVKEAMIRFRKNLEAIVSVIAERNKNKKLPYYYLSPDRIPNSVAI

[3] = system: Rattus norvegicus; assay: Concentration of LTB4 was determined by enzyme immunoassay (Ex vivo) rat whole blood after intravenous administration of 5 mg/Kg; type: functional
[4] = species on record: Homo sapiens; assay: Inhibition of human whole blood (HWB) LTB4 production in A-23,187-activated human whole blood by the enzyme immunoassay at a dose of 3 uM; type: functional
[5] = system: Mus musculus; assay: Ability to antagonize PAF-induced hemoconcentration PAF HTc in mice at a dose of 3 mg/kg; type: functional
[6] = system: Mus musculus; assay: Arachidonic acid (AA)-induced ear edema in mice was determined by topically applying AA to ears of mice; type: functional
[7] = species on record: Homo sapiens; assay: Inhibition of human whole blood (HWB) LTB4 production in A-23,187-activated human whole blood by the enzyme immunoassay; type: functional

Platelet-activating factor receptor, sequence (P25105 whole entry): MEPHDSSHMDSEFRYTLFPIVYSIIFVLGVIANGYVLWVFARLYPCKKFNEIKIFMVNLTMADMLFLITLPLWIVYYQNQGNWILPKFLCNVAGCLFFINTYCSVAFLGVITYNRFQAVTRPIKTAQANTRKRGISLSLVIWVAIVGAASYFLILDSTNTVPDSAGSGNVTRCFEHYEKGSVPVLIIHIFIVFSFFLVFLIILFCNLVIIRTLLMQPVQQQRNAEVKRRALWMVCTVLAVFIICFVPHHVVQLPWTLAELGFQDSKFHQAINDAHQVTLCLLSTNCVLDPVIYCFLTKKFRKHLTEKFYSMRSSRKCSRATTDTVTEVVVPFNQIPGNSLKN

Structure (SMILES) | IC50 [1] [µM] | IC50 [2] [µM] | other results
CCCOc1cc([C@H]2CC[C@H](c3cc(OC)c(OC)c(OC)c3)O2)cc(N(CC)C(=O)N(O)CCC)c1OCCC | 0.056 |  | 
CCCNC(=O)N(O)c1cc([C@H]2CC[C@H](c3cc(OC)c(OC)c(OC)c3)O2)cc(OCCC)c1OCCC | 0.091 | 3 | 
CCCOc1cc([C@H]2CC[C@H](c3cc(OC)c(OC)c(OC)c3)O2)cc(N(O)C(=O)NCC)c1OCCC | 0.059 |  | 
CCCOc1cc([C@H]2CC[C@H](c3cc(OC)c(OC)c(OC)c3)O2)cc(N(CC)C(=O)N(O)CC)c1OCCC | 0.017 | 1.34 | 
CCCOc1cc([C@H]2CC[C@H](c3cc(OC)c(OC)c(OC)c3)O2)cc(N(CC)C(=O)N(C)O)c1OCCC | 0.068 | 3.07 | 
CCCOc1c(NC(=O)N(O)C(C)(C)C)cc(C2CCC(c3cc(OC)c(OC)c(OC)c3)O2)cc1OC (cis isomer) | 0.456 |  | 
CCCOc1c(NC(=O)N(O)C2CCCCC2)cc(C2CCC(c3cc(OC)c(OC)c(OC)c3)O2)cc1OC (cis isomer) | 1 | 2.54 | 
CCCOc1c(NC(=O)N(O)Cc2ccccc2)cc(C2CCC(c3cc(OC)c(OC)c(OC)c3)O2)cc1OC (cis isomer) | 0.585 | 8 | 
CCCOc1c(NC(=O)N(O)C(C)CC)cc(C2CCC(c3cc(OC)c(OC)c(OC)c3)O2)cc1OC (cis isomer) | 1.61 | 0.45 | 
CCCOc1c(NC(=O)N(C)O)cc(C2CCC(c3cc(OC)c(OC)c(OC)c3)O2)cc1OC (cis isomer) | 0.514 |  | 
CCCCN(O)C(=O)Nc1cc(C2CCC(c3cc(OC)c(OC)c(OC)c3)O2)cc(OC)c1OCCC (cis isomer) | 1.31 | 0.5 | 
CCCOc1c(NC(=O)N(O)C(C)C)cc(C2CCC(c3cc(OC)c(OC)c(OC)c3)O2)cc1OC (stereo in doubt) | 0.858 | 2.83 | 
CCCOc1c(NC(=O)N(O)CCC)cc(C2CCC(c3cc(OC)c(OC)c(OC)c3)O2)cc1OC (stereo in doubt) |  | 10 | 
CCCOc1c(NC(=O)NO)cc(C2CCC(c3cc(OC)c(OC)c(OC)c3)O2)cc1OC (stereo in doubt) | 0.3 |  | 
CCCCN(O)C(=O)Nc1cc(C2CCC(c3cc(OC)c(OC)c(OC)c3)O2)cc(OC)c1OCCC (stereo in doubt) | 0.033 | 0.42 | inhibition in vivo at 5 mg/kg [3]: 67%; inhibition at 3 µM [4]: 64%; inhibition in vivo at 3 mg/kg [5]: 31%; Inhibition [6]: 60%; IC50 [7]: 1.68 µM
CCCOc1c(NC(=O)N(O)CC)cc(C2CCC(c3cc(OC)c(OC)c(OC)c3)O2)cc1OC (stereo in doubt) | 0.383 | 3 | 
CCCOc1c(NC(=O)N(O)C(C)(C)C)cc(C2CCC(c3cc(OC)c(OC)c(OC)c3)O2)cc1OC (trans isomer) | 0.026 | 2.9 | 
CCCOc1c(NC(=O)N(O)C(C)C)cc(C2CCC(c3cc(OC)c(OC)c(OC)c3)O2)cc1OC (trans isomer) | 0.058 | 3 | 
CCCOc1c(NC(=O)N(O)C2CCCCC2)cc(C2CCC(c3cc(OC)c(OC)c(OC)c3)O2)cc1OC (trans isomer) | 0.278 |  | 
CCCOc1c(NC(=O)N(O)Cc2ccccc2)cc(C2CCC(c3cc(OC)c(OC)c(OC)c3)O2)cc1OC (trans isomer) | 0.423 | 2.24 | 
CCCOc1c(NC(=O)N(O)CCC)cc(C2CCC(c3cc(OC)c(OC)c(OC)c3)O2)cc1OC (trans isomer) |  |  | IC50 ([2]; rbl-2h3): 10 µM
CCCOc1c(NC(=O)NO)cc(C2CCC(c3cc(OC)c(OC)c(OC)c3)O2)cc1OC (trans isomer) | 0.03 |  | 
CCCOc1c(NC(=O)N(O)C(C)CC)cc(C2CCC(c3cc(OC)c(OC)c(OC)c3)O2)cc1OC (trans isomer) | 0.025 | 0.6 | inhibition at 3 µM [4]: 57%
CCCOc1c(NC(=O)N(C)O)cc(C2CCC(c3cc(OC)c(OC)c(OC)c3)O2)cc1OC (trans isomer) | 0.017 | 0.63 | 
CCCOc1c(NC(=O)N(O)CC)cc(C2CCC(c3cc(OC)c(OC)c(OC)c3)O2)cc1OC (trans isomer) | 0.008 | 0.15 | inhibition at 3 µM [4]: 23%; inhibition in vivo at 3 mg/kg [5]: 58%
CC(c1cc2ccccc2s1)N(O)C(N)=O (stereo not given) [ZILEUTON] |  |  | inhibition at 3 µM [4]: 75%
